Assay results taken from patent publication US20150025131A1 (priority 2013, published 2015).
Converted amounts (≈) assume the structure as drawn. “Also recorded” adds a separate entry of the source. Like-named read-outs stand apart in the source and are kept apart here.

Legend:
serum TNF-α = test: Adjuvant induced arthritis model, serum TNF-α; type: in vivo, Sprague Dawley rats; settings: AIA rats, daily intraperitoneal; Patuletin 25 mg/kg, indomethacin 5 mg/kg
Procedure: (§1) All studies were carried out using Female Sprague Dawley (SD) rats weighing 150-250 gms. Animals were kept at 21±2° C. and on a 12-h light/dark cycle, received standardized pelleted diet and tap water. Experiments were performed under the ethical guidelines of the International Association for the study of pain in conscious animals. Each group contains 12 animals with randomly distributed weights into each treatment group.
(§2) Arthritis was induced by injecting freshly prepared 100 μL of 1 mg suspension of lyophilized Mycobacterium tuberculosis H37Ra (MT H37Ra; DIFCO Laboratories, Detroit, Mich., USA), subcutaneously at the rat tail base using sterile hypodermic needle. Inoculation was carried out under anesthesia with a combination of 20 mg/kg ketamine and 5 mg/kg xylazine, injected intraperitoneally. Compound and the reference drug were administered daily, intraperitoneally using sterile syringes. The positive control received vehicle (5% DMSO+PBS) or saline only; treatment groups received test compounds (25 mg/kg), whereas reference group received indomethacin (5 mg/kg). The doses of the test compounds were selected after preliminary dose finding studies. […]
(§3) The quantitative measurement of TNF-α and IL-1β was done in serum of all groups of animals including arthritic and non-arthritic using commercial ELISA assay kits (Abcam, USA) according to the manufacturer's instructions. […]

serum IL-1β = test: Adjuvant induced arthritis model, serum IL-1β; type: in vivo, Sprague Dawley rats; settings: AIA rats, daily intraperitoneal; Patuletin 25 mg/kg, indomethacin 5 mg/kg
Procedure: as §1, §2, §3

serum peroxide = test: Adjuvant induced arthritis model, serum peroxide; type: in vivo, Sprague Dawley rats; settings: AIA rats, daily intraperitoneal; Patuletin 25 mg/kg, indomethacin 5 mg/kg
Procedure: as §1
(§4) Arthritis was induced by injecting freshly prepared 100 μL of 1 mg suspension of lyophilized Mycobacterium tuberculosis H37Ra (MT H37Ra; DIFCO Laboratories, Detroit, Mich., USA), subcutaneously at the rat tail base using sterile hypodermic needle. […]
(§5) Peroxide (PO) and nitric oxide (NO), in serum were determined in the serum samples of both the normal and arthritic groups, using quantitative colorimetric assay kits, i.e., the Quantichrom ™ Nitric Oxide Assay Kit, and the Quantichrome™ Peroxide assay kit Diox-250 (BioAssay Systems, Hayward, Calif., USA). […] The samples were analyzed in duplicates using 96-well plate and the plate was read at 540 nm. The Quantichrome™ Peroxide assay kit Diox −250 system is an improved method which utilizes the oxidation of Fe^++ by peroxide present in the analyzed sample resulting in formation of purple complex that gives the accurate measure of peroxide level in the sample when read at 540-610 nm.

[1] = tested on: non-activated Jurkat cell proliferation; test: Jurkat T cell proliferation; type: cell-based; settings: Homo sapiens; non-activated Jurkat cells; read-out: Jurkat T cell Proliferation (IC50 μg /mL)
Procedure: In order to monitor the effect of this compound on cellular immune response particularly on T cells, the compound was tested on thymidine incorporated T cell proliferation assay.

serum nitric oxide = test: Adjuvant induced arthritis model, serum nitric oxide; type: in vivo, Sprague Dawley rats; settings: AIA rats, daily intraperitoneal; Patuletin 25 mg/kg, indomethacin 5 mg/kg
Procedure: as §1, §4, §5

[2] = tested on: NIH 3T3 mouse fibroblast cells; test: MTT cytotoxicity assay, NIH 3T3; type: cell-based
Procedure: (§6) Cell cytotoxicity assay was performed using three different cell lines NIH 3T3 (mouse embryo, fibroblast cells), CC1 (rat, epithelial, liver cell) and MDBK (bovine kidney) cells using MTT (3-[4,5-dimethylthiazole-2-yl]-2,5-diphenyl-tetrazolium bromide) colorimetric assay. Briefly 3T3 were grown in DMEM, supplemented with 10% of fetal bovine serum (FBS), and 1% penicillin-streptomycin whereas CC1 (rat epithelial liver cells) were cultured in EMEM, 2 mM Glutamine, 1% Non-Essential Amino Acids (NEAA), 20 mM HEPES, 10% Foetal Bovine Serum (FBS) and 1% penicillin-streptomycin, and MDBK cells were grown in 10% of fetal bovine serum (FBS) in 75 cm^2 flask, and incubated in 5% CO2 incubator at 37° C. until they attain 70% confluency. Cells were then harvested by centrifuging at 200 g for 5 min at 25° C., counted using heamocytometer and their concentration was adjusted to 6×10^4 cells/mL. 100 μL of Cells were then plated in 96 well plate and incubated overnight. Next day the supernatant was carefully removed and 200 μL of fresh medium was added with three different concentration of compound (1, 10, 50) μg/mL. […] The extent of MTT reduction to formazan within cells was calculated by measuring the absorbance at 540 nm; using a micro plate reader (Spectra Max plus 340, Molecular Devices, Calif., USA). […] The percent inhibition was calculated by using the following formula: […]

[3] = MTT cytotoxicity assay, NIH 3T3; type: cell-based, mouse; settings: mouse, NIH 3T3 mouse embryo fibroblast cells, 48 h incubation, read-out: Cytotoxicity (IC50 μg/mL) NIH 3T3 cells
Procedure: as §6

[4] = tested on: ROS production from human peripheral whole blood phagocytes; test: Luminol enhanced chemiluminescence oxidative burst, whole blood; type: cell-based
Procedure: Intracellular effect was determined using human peripheral whole blood phagocytes and isolated neutrophils and from mice peritoneum macrophages, where luminol-enhanced chemillumenescence assay was applied. The effect on myeloperoxidase independent ROS production was determined using lucigenin on murine macrophages RAW.267 cells.
Table 2. […] 267 cells (murine macrophages). DPI is used as standard drug. Reading presents mean±SD of three determinations.
Luminol enhanced chemiluminescence technique was applied to study the effect of compound on ROS from phagocytes, Using whole blood, neutrophil and macrophages Briefly, 25 μL diluted whole blood (1:50 dilution in sterile HBSS^++) or 25 μL of PMNs (1×10^6), or 25 μL of isolated macrophages (1×10^6) were incubated with 25 μL of compound in triplicates and using three different concentrations (1, 10 and 100 μg/mL) using white 96 wells plates. Wells received HBSS^++ and cells only without compound served as positive control. 25 μL of serum opsonized zymosan-A (SOZ), followed by 25 μL luminol (7×10^−5 M), was added to each well to maintain a volume of 100 μL/well. Plates were then incubated at 37° C. for 30 minutes in the thermostated chamber of the luminometer. Results were monitored as relative light unit (RLU) reading, with peak and total integral values set with repeated scans at 60 seconds intervals, and 1 second points measuring time.

serum glutathione = test: Adjuvant induced arthritis model, serum glutathione; type: in vivo, Sprague Dawley rats; settings: AIA rats, daily intraperitoneal; Patuletin 25 mg/kg, indomethacin 5 mg/kg
Procedure: as §1
as §2, with “mg/kg).” for “mg/kg). The doses of the test compounds were selected after preliminary dose finding studies.”
The concentration of reduced form of glutathione was determined in serum using the colorimetric Quantichrome ™ Glutathione assay kit (Bioassay Systems) in duplicates, using 96 well plates and according to manufacturer's instructions. The OD recorded at 412 nm which directly represents the level of glutathione in serum.

## COc1c(O)cc2oc(-c3ccc(O)c(O)c3)c(O)c(=O)c2c1O [Patuletin, 3,5,7,3′,4′-pentahydroxy-6-methoxy flavones]
Serum TNF-α
  level of TNF-α in serum versus arthritic control group: marked decrease
Serum IL-1β
  level of IL-1β in serum versus arthritic control group: significant decrease; also recorded: marked decrease
Serum peroxide
  level of peroxide in serum versus arthritic control group: decrease; also recorded: non-significant reduction
[1]
  IC50: 3.47 µg/mL (≈ 10.4 µM)
Serum nitric oxide
  level of nitric oxide in serum versus arthritic control group: marked reduction; also recorded: significant decrease
[2]
  cytotoxicity on NIH 3T3 mouse fibroblast cells (in words): no cytotoxicity
[3]
  IC50 at 48 h: 36.4 ± 6.9 µg/mL (≈ 110 µM)
[4]; luminol enhanced, serum opsonized zymosan, read-out: Myeloperoxidase dependent Oxidative Burst (IC50 μg/mL) Whole blood
  IC50: 3.5 ± 0.5 µg/mL
[4]; read-out: suppression of ROS production from whole blood (IC50), unit inferred
  IC50: 3.5 µg/mL
Serum glutathione
  level of glutathione in serum versus arthritic control group: non-significant increase; also recorded: mild increase
